Target: T1, human recombinant Yes [a.a. 2–543 (end)] (Homo sapiens, UniProt P07947)
T1 construct: human recombinant Yes [a.a; 2–543 (end)]; purchased BPS Bioscience 40488
Experiment: ADP-Glo kinase assay, inhibition rates of Yes phosphorylation activity (first and second screening)
Type: biochemical
Settings: first screening; mean of n = 4 wells; 10 μmol L−1 compound
Outline: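 Hits from a first pass were rescreened after re-dissolution from fresh powder. The first pass reported the mean inhibition rate of quadruplicate wells per compound. Activity was that of recombinant human Yes [a.a. 2–543] kinase, read out with the ADP-Glo ADP-detection method.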

T1 sequence (P07947 2-543): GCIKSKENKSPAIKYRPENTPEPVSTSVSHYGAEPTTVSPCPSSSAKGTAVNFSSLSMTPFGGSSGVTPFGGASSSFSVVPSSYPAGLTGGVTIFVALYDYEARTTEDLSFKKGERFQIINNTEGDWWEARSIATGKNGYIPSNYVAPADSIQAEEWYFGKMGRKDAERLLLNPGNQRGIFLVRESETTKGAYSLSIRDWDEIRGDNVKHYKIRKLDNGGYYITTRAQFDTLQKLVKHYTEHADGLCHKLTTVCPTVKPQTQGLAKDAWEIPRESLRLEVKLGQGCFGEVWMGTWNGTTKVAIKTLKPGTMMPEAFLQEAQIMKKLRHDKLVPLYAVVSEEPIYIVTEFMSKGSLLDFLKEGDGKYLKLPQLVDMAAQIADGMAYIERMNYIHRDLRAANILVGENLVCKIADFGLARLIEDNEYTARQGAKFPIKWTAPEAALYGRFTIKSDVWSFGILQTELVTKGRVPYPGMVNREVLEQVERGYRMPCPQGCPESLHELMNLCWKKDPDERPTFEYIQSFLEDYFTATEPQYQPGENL

Compound	First screening IR (inhibition rate) [%]
O=C1CCCN1c1ccc(Nc2nccc(C(F)(F)F)n2)cc1 [Compound Z285697278]	-12
CC1CC2CCCCC2N1c1ncnc2c1nnn2-c1ccccc1 (stereo not shown) [Compound Z1270084447]	45
Cn1ccnc1C(O)(CCNC(=O)c1cccc(-c2cnc3[nH]c(=O)n(C)c3c2)c1)C(F)(F)F (stereo not shown) [Compound Z1723428243]	17
CCN(CCNC(=O)CCN1CCN(c2ccccn2)CC1)c1ccccc1C [Compound Z1255568722]	27
CC1CCCN(Cc2ccc(CNCC3CNc4ccnn4C3)cc2)C1 (stereo not shown) [Compound Z1097879141]	-4
CN1N=C(C(=O)N2CCN(S(=O)(=O)c3ccccc3C(F)(F)F)CC2)CCC1=O [Compound Z164780402]	7
CC1(CCc2ccccc2)NC(=O)N(NC(=O)c2ccc(-n3cnc4ccccc43)cc2)C1=O (stereo not shown) [Compound Z136752996]	9
Cc1cccc(OCCCNC(=O)c2ccc3nc[nH]c3c2)c1 [Compound Z168616264]	-4
CCC(C)(C)C1C/C(=C/c2cc(Br)c(O)c(OC)c2)c2nc3ccccc3c(C(=O)O)c2C1 (stereo not shown) [Compound Z46116622]	5
COc1ccc(NC(=O)c2c(Nc3ccc(OC(F)F)cc3)sc(C(=O)Nc3ccc4c(c3)OCO4)c2N)cc1Cl [Compound Z56918070]	16
O=C(NCCc1nc2ccccc2[nH]1)c1cc(-c2ccccc2)nc2c1cnn2Cc1ccco1 [Compound Z228153102]	7
Cc1cc(C)c(C(=O)CSc2nnc(-c3c[nH]c4ccccc34)n2CC2CCCO2)c(C)c1 (stereo not shown) [Compound Z18647134]	-1
CCCCNS(=O)(=O)C1=CCS(=O)(=O)C1 [Compound Z1342205464]	9
O=C(NC1(C(F)(F)F)Oc2ccccc2O1)Sc1ccccc1 [Compound Z56864837]	42
Cn1cncc1CC(=O)Nc1ccc2nc(-c3cc(F)ccc3F)[nH]c2c1 [Compound Z1737110153]	6
O=c1c([N+](=O)[O-])c(NCCCn2ccnc2)c2ccccc2n1-c1ccccc1 [Compound Z339024634]	-22

Continued, values first:

First screening IR (inhibition rate) [%]	Compound
10	Cl.Oc1ccc(-c2cc(-c3ccccc3Cl)c3cc(Cl)ccc3n2)cc1 [Compound Z48951729]
6	Cc1cc(S(C)(=O)=O)c(C)c(S(=O)(=O)N2CCCCCC2)c1 [Compound Z1145185709]
-18	NS(=O)(=O)c1cc(S(=O)(=O)c2ccc(Cl)c(S(N)(=O)=O)c2)ccc1Cl [Compound Z56888775]
7	CCN(CC(C)C)c1ccc(S(C)(=O)=O)cc1S(C)(=O)=O [Compound Z666139280]
12	CC(NS(=O)(=O)c1ccc(C(C)(C)C)cc1)c1ccc(-n2ccnc2)cc1 (stereo not shown) [Compound Z45488256]
-2	Cc1c(-c2ccccc2)nc2ccc(Cl)cc2c1-c1ccccc1Cl.Cl [Compound Z48951725]
-4	O=C1Cc2cc(S(=O)(=O)N3CCCc4cccc(OC(F)F)c43)ccc2N1 [Compound Z815677014]
12	CC1CC(C)CN(S(=O)(=O)c2cc(S(C)(=O)=O)ccc2Cl)C1 (stereo not shown) [Compound Z355129038]
48	COc1cccc(-c2cc(-c3ccc(Cl)cc3)c3ccccc3n2)c1 [Compound Z1844441844]
1	CN(C)S(=O)(=O)c1cc(S(=O)(=O)c2ccc(Cl)c(S(=O)(=O)N(C)C)c2)ccc1Cl [Compound Z56862791]
-3	O=C(/C=C/c1ccco1)Nc1cc(-c2cccc([N+](=O)[O-])c2)sc1C(=O)O [Compound Z204341820]
2	COc1ccc(NC(C)=O)cc1S(=O)(=O)N(C)Cc1cccc(OC)c1OC [Compound Z45476409]
